Source: PubChem BioAssay AID1347409 (Pan Lab, Icahn School of Medicine at Mount Sinai, 2020)
Records with an inconclusive call do not appear. Active and inactive are the calls of the source.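 How the source made its calls: active means EC50 at or below 10 µM; inconclusive means EC50 above 10 and up to 20 µM; inactive means EC50 above 20 µM.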

System: MV4-11 apoptosis, Annexin V flow cytometry, 48 h
Assay: MV4-11 leukemia cell apoptotic death – Annexin V, flow cytometry, dose response (AID 1347409)

SMILES	EC50
CN(CCC(=O)C=Cc1ccc(Cl)c(Cl)c1)CCc1ccc2c(c1)OCO2	5.2 µM
CCOc1ccc2nc3cc(NC(=O)c4ccco4)ccc3c(N)c2c1	1.3 µM
CCOC(=O)c1c(NC(=O)CCC(=O)O)sc(C)c1-c1ccc(CC(C)C)cc1	33.6 µM (inactive)
Cc1ccc2c(c1)-c1c(c(C(=O)N3CCN(c4cc(C)ccc4C)CC3)nn1C)CS2	68.2 µM (inactive)
CCNc1ccc(Br)cc(C(=O)/C=C/c2c(Cl)cccc2Cl)c1=O	4.4 µM
COc1ccc(C=C2C(=O)N(Cc3ccco3)C(=O)N(C(C)C)C2=O)cc1	60 µM (inactive)
CCOc1cccc2c1N[C@@H](c1ccc(C(=O)O)cc1)[C@H]1CC=C[C@@H]21	113 µM (inactive)
CCCCCCCCCOc1ccc(C#CC(=O)O)cc1	32.4 µM (inactive)
Cc1ccc(NC(=O)c2ccc(Cl)cc2Cl)c(S(=O)(=O)O)c1	90.1 µM (inactive)
Cc1ccc([C@@H]2Nc3c(ccc(C(=O)O)c3C)[C@@H]3C=CC[C@@H]32)cc1	94.8 µM (inactive)
NCCCSc1nc2c(c(=O)n1Cc1ccccc1)C1(CCCCC1)Cc1ccccc1-2	2.4 µM
